The results in this text go back to patent US20240279214A1, “ALPHA4 BETA7 INEGRIN ANTAGONISTS AND USES THEREOF” (XinThera, Inc., priority 2022, published 2024).

In the assay the target is T1, a4b1 integrin interaction with VCAM-1 (Homo sapiens, UniProt P05556+P13612).
T1 construct: capture of a4b1 integrin expressing cells Jurkat; endogenous in cells; host or cells: Jurkat
T1 sequence (P13612 34-1032): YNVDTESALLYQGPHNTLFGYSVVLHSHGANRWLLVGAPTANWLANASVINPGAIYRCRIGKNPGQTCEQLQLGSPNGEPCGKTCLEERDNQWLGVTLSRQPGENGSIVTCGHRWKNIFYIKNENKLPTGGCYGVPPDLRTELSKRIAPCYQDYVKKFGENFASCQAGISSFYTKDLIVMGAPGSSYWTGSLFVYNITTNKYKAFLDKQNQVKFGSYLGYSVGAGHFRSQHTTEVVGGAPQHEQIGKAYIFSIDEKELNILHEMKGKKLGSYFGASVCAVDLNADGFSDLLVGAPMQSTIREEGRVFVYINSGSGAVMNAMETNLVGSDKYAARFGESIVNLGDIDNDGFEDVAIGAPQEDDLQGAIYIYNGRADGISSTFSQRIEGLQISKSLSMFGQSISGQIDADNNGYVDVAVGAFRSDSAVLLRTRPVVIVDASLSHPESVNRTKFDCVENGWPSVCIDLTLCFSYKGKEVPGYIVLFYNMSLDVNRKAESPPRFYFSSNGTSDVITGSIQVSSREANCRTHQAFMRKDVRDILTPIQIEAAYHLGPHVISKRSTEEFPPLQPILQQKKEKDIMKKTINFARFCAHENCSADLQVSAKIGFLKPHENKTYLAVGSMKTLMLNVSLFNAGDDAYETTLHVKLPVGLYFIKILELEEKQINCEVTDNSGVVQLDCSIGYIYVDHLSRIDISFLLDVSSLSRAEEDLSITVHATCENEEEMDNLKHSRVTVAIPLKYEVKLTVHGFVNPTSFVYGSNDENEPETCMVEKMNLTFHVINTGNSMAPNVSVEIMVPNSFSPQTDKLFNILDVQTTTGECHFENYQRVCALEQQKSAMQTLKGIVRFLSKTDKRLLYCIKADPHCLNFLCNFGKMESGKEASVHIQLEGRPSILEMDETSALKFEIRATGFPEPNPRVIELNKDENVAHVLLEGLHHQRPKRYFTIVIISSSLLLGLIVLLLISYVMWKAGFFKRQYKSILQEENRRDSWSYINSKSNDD
T1 sequence (P05556 21-798): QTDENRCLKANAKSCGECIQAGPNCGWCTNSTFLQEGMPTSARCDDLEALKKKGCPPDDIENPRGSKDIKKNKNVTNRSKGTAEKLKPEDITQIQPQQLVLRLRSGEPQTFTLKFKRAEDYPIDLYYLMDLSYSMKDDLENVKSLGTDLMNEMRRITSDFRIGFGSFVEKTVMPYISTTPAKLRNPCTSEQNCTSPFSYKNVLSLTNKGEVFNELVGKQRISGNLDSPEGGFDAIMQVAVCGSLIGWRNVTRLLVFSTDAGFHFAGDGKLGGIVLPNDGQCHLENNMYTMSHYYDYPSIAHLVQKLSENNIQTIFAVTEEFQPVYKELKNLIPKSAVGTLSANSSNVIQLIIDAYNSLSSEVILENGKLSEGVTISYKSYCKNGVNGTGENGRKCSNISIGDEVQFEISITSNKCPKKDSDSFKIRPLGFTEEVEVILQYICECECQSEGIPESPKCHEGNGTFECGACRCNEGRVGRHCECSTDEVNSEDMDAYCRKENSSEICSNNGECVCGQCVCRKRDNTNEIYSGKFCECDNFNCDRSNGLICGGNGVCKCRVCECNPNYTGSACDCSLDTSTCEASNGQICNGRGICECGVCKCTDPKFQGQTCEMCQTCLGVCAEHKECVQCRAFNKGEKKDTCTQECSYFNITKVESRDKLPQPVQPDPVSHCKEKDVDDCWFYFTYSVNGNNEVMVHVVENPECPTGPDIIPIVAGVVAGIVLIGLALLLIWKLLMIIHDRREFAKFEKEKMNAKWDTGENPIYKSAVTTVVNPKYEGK
Kind of assay: a4b1 Cell Capture Assay (Jurkat cells on VCAM-1 Fc coated plates). Format: cell-based. The note with it: 50% human serum, 1 mM MgCl2, 1 hour incubation, CellTiter-Glo luminescence. On the procedure:
The potency of inhibitors in preventing a4b1 integrin interaction with VCAM-1 was measured by monitoring the capture of a4b1 integrin expressing cells Jurkat on recombinant human VCAM-1 Fc chimera protein-coated plates. The protein was a fusion between human VCAM-1 (Phe25-Glu698) Accession #P19320, Accession #AAY82472) and human IgG1 (Pro100-Lys330)] (R&D Systems, Catalog #862-VC). 96-well plates (Thermofisher, Catalog #136102) were coated with the recombinant protein by dispensing 100 μL of 0.25 μg/mL per well. After a quick spin to settle down the coating solution using plate centrifuge, plates were incubated overnight at 4° C. in a moisture chamber. On Day 2, the plates were washed with PBS using a Bluecatbio Blue®Washer (GentleSpin wash, 3 cycles, pressure=1, volume 150 uL). Blocking solution (1.0% BSA in PBS, Sigma, Catalog #A7979) was then added at 200 uL/well, and the plates were quickly spun to settle down blocking buffer and incubated in cell culture incubator at 37° C. and 5% CO2 for 1 hour. The plates were then washed with 0.1% BSA in PBS using a Bluecatbio Blue®Washer (GentleSpin wash, 3 cycles, pressure=1, volume 150 uL). Jurkat cells suspended in assay medium (1 mM MgCl2 25 mM HEPES and 50% human serum, Sigma, Catalog #H4522) at a density of 0.5×10^6 cells/mL were added at 100 uL/well. Each compound evaluated was prepared as a DMSO stock solution. Test compounds were evaluated with a 9-point serial dilution curve and were added to the plates using a Tecan D300e Digital dispenser. Each titration curves were performed in triplicate on the same plate, and most of compounds were retested in different dates multiple times. The plates were shaken at 300 rpm on orbital plate shaker for 3 minutes to mix the cells and compounds, quickly spun to settle the cells and solution, and incubated in cell culture incubator at 37° C. and 5% CO2. After 1 hour incubation, the unbound cells were washed away with RPMI1640 medium supplemented with 1 mM MgCl2 and 1% BSA) (wash buffer) using a Bluecatbio Blue®Washer (MagbeadsSpin wash, 1 cycle, pressure 1, volume=150 uL). After wash buffer removal, A mixture of wash buffer/CellTiter-Glo® Reagent (Pormega, catalog #G7573) at 1:1 (V/V) was added at volume of 100 uL to each well. The plates were placed in a chamber at 25° C. and incubated for 30 minutes. Luminescence was recorded using a Envision plate reader 2105 according to CellTiter-Glo protocol.
The mean luminescence signals from negative control wells without VCAM-1 coating and compound treatment (cells only) was defined as 100% binding inhibition, and the mean luminescence signals from positive control wells with VCAM-1 coating but without compound treatment (VCAM-1 and cells only) was defined as 0% binding inhibition. The luminescence signals from other compound treated wells were normalized in percentage scale accordingly. The normalized mean % inhibition data were plotted against logarithmic compound concentration in nanomolar and were fitted with 4-parameter logistic model to obtain IC50 for each compound.
Turning to `Cc1cc2cc(c1F)[C@H](CC(=O)O)NC(=O)[C@@H](n1cc(CCN3CC(F)C3)c(C(F)(F)F)cc1=O)c1cccc(c1)Oc1cccc(C)c1-2` (relative stereo) [Example 1, rel-2-((5S,8S)-1^4-fluoro-5-(5-(2-(3-fluoroazetidin-1-yl)ethyl)-2-oxo-4-(trifluoromethyl)pyridin-1(2H)-yl)-1^5,2^6-dimethyl-6-oxo-3-oxa-7-aza-1,4(1,3),2(1,2)-tribenzenacyclooctaphane-8-yl)acetic acid], the EC50 amounted to 2080 nM.
`Cc1cc2cc(c1F)[C@H](CC(=O)O)NC(=O)[C@@H](n1cc(CCN3CC(F)C3)c(C(F)(F)F)cc1=O)c1cc(ccc1F)Oc1cccc(C)c1-2` (relative stereo) [Example 7, [(14R*,17S)-12,19-difluoro-14-{5-[2-(3-fluoroazetidin-1-yl)ethyl]-2-oxo-4-(trifluoromethyl)pyridin-1-yl}-3,20-dimethyl-15-oxo-8-oxa-16-azatetracyclo[16.3.1.1^{9,13}.0^{2,7}]tricosa-1(21),2(7),3,5,9(23),10,12,18(22),19-nonaen-17-yl]acetic acid]: a half-maximal response (EC50) required 61.5 nM.
On to `Cc1cc(C2CC2)cc2c1-c1cc(c(F)c(C(F)(F)F)c1)[C@H](CC(=O)O)NC(=O)[C@@H](n1cc(CCN3CC(F)C3)c(C(F)(F)F)cc1=O)c1cccc(c1)O2` (relative stereo) [Example 10, [(14R*,17S)-5-cyclopropyl-19-fluoro-14-{5-[2-(3-fluoroazetidin-1-yl)ethyl]-2-oxo-4-(trifluoromethyl)pyridin-1-yl}-3-methyl-15-oxo-20-(trifluoromethyl)-8-oxa-16-azatetracyclo[16.3.1.1^{9,13}.0^{2,7}]tricosa-1(21),2(7),3,5,9,11,13(23),18(22),19-nonaen-17-yl]acetic acid], for which the concentration giving a half-maximal response (EC50) stood at 11900 nM. Compared with the last compound, the EC50 is about 190-fold higher.
In turn, `Cc1cccc2c1-c1cc(c(F)c(C(F)(F)F)c1)[C@H](CC(=O)O)NC(=O)[C@@H](n1cc(CCN3CC(F)C3)c(C(F)(F)F)cc1=O)c1cc(Cl)cc(c1)O2` (relative stereo) [Example 15, [(14R*,17S)-11-chloro-19-fluoro-14-{5-[2-(3-fluoroazetidin-1-yl)ethyl]-2-oxo-4-(trifluoromethyl)pyridin-1-yl}-3-methyl-15-oxo-20-(trifluoromethyl)-8-oxa-16-azatetracyclo[16.3.1.1^{9,13}.0^{2,7}]tricosa-1(22),2(7),3,5,9,11,13(23),18,20-nonaen-17-yl]acetic acid] came in with a concentration giving a half-maximal response (EC50) of 880 nM. Against the preceding compound, the EC50 is about 14-fold lower.
With `Cc1cc(C)c2c(c1)Oc1cccc(c1)[C@H](n1cc(CCCN(C)C)c(C(F)(F)F)cc1=O)C(=O)N[C@@H](CC(=O)O)c1cn-2nc1C(F)(F)F` (relative stereo) [Example 18, [(13S,16R*)-16-{5-[3-(dimethylamino)propyl]-2-oxo-4-(trifluoromethyl)pyridin-1-yl}-5,7-dimethyl-15-oxo-11-(trifluoromethyl)-2-oxa-9,10,14-triazatetracyclo[15.3.1.1^{9,12}.0^{3,8}]docosa-1(20),3(8),4,6,10,12(22),17(21),18-octaen-13-yl]acetic acid], a half-maximal response (EC50) required 689 nM. This EC50 and that of the compound before are within 1.5-fold of each other.
With `Cc1cc2cc(c1F)[C@H](CC(=O)O)NC(=O)[C@@H](n1cc(CCN3CC(F)C3)c(C(F)(F)F)cc1=O)c1cc(Cl)cc(c1)Oc1cccc(C)c1-2` (single isomer, unassigned) [Example 3] the figure was 359 nM; with `Cc1cc(Cl)cc2c1-c1cc(c(F)c(C(F)(F)F)c1)[C@H](CC(=O)O)NC(=O)[C@@H](n1cc(CCN3CC(F)C3)c(C(F)(F)F)cc1=O)c1cccc(c1)O2` (single isomer, unassigned) [Example 11], 4580 nM.

As a reminder, the EC50 is the concentration giving half of the maximal effect. Higher therefore signals a need for much substance.
